In the supplement of paper PMC11061612:

Tests used:
[1] = compound: COc1nnc2ccc(N3CCC(c4ccc(OCCN5CCN(C)C(=O)[C@H]5C)cc4)CC3)nn12 [AZD5153]; details: max 1 µM
Outline: (§1)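 After 24 hours at 37°C and 5% CO2 in 1536-well plates holding 7.5 μl of DMEM/F12 or RPMI with 10% FBS, cancer cell lines were dosed for 72 hours, with final DMSO typically 0.2%. Viability came from CellTiter-Glo 2.0 luminescence, scaled between the means of blank wells and DMSO wells. A non-linear mixed effects model fitted a two-parameter logistic curve to each dose response to give the single-agent IC50.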

[2] = compound: C[C@@H](Nc1cc(F)cc(F)c1)c1cc(C(=O)N(C)C)cc2c(=O)cc(N3CCOCC3)oc12 [AZD8186]; details: max 10 µM
Outline: as §1

[3] = compound: CC(=O)c1c(C)c2cnc(Nc3ccc(N4CCNCC4)cn3)nc2n(C2CCCC2)c1=O [Palbociclib]; details: max 10 µM
Outline: as §1

[4] = compound: COc1cc(Nc2ncc3c(n2)-c2ccc(Cl)cc2C(c2c(F)cccc2OC)=NC3)ccc1C(=O)O [Alisertib]; details: max 10 µM
Outline: as §1

[5] = compound: CC1=C(C(=CC=C1)Cl)NC(=O)C2=CN=C(S2)NC3=CC(=NC(=N3)C)N4CCN(CC4)CCO [Dasatinib]; details: max 2 µM
Outline: as §1

[6] = compound: O=C(Nc1ccc2[nH]nc(-c3ccncc3)c2c1)[C@@H]1CCN(CC(=O)N2CCN(c3ccc(-c4ncccn4)cc3)CC2)C1; details: max 5 µM
Outline: as §1

[7] = compound: CN(CC[C@H](CSC1=CC=CC=C1)NC2=C(C=C(C=C2)S(=O)(=O)NC(=O)C3=CC=C(C=C3)N4CCC(CC4)[C@H](C5=CC=CC=C5C6=CC=C(C=C6)Cl)O)S(=O)(=O)C(F)(F)F)CCO [AZD4320]; details: max 1 µM
Outline: as §1

[8] = compound: C[C@@H]1COCCN1C2=NC(=NC(=C2)C3(CC3)[S@](=N)(=O)C)C4=C5C=CNC5=NC=C4 [AZD6738]; details: max 10 µM
Outline: as §1

[9] = compound: COc1cccc(OCCCN)c1-c1cc(Nc2cnc(C#N)cn2)n[nH]1 [Prexasertib]; details: max 1 µM
Outline: as §1

[10] = compound: CC(=O)Nc1cccc(-n2c(=O)n(C3CC3)c(=O)c3c(Nc4ccc(I)cc4F)n(C)c(=O)c(C)c32)c1 [Trametinib]; details: max 1 µM
Outline: as §1

[11] = compound: COc1cc2ncnc(Nc3ccc(F)c(Cl)c3)c2cc1OCCCN1CCOCC1 [Gefitinib]; details: max 10 µM
Outline: as §1

[12] = compound: Cc1c2c(nn1C)CSCc1cc(n(C)n1)CSc1cc(c3ccccc3c1)OCCCc1c(C(=O)O)n(C)c3c-2c(Cl)ccc13 [AZD5991]; details: max 1 µM
Outline: as §1

[13] = compound: C1CC(C1)(C(=O)[O-])C(=O)[O-].N.N.[Pt+2] [Carboplatin]; details: max 10 µM
Outline: as §1

[14] = compound: CN(C)CCCOc1ccc(-c2ccc3ncc4c(c3c2)n(C2CCOCC2)c(=O)n4C)cn1 [AZD0156]; details: max 3 µM
Outline: as §1

[15] = compound: C[C@@H](c1ccc2nccn2c1)n1nnc2ncc(-c3cnn(C)c3)nc21 [Savolitinib]; details: max 1 µM
Outline: as §1

[16] = compound: CC1=CN2[C@@H](C1)C=NC3=CC(=C(C=C3C2=O)OC)OCCCCCOC4=C(C=C5C(=C4)N=C[C@@H]6CC(=CN6C5=O)C)OC [SG3199]; details: max 0.001 µM
Outline: as §1

[17] = compound: CC(C)n1c(=O)n(C)c2cnc3cc(F)c(-c4ccc(OCCCN5CCCCC5)nc4)cc3c21 [AZD1390]; details: max 0.3 µM
Outline: as §1

[18] = compound: CCc1c2c(nc3ccc(O)cc13)-c1cc3c(c(=O)n1C2)COC(=O)[C@]3(O)CC [SN-38]; details: max 0.3 µM
Outline: as §1

[19] = compound: COc1cccc2c1C(=O)c1c(O)c3c(c(O)c1C2=O)C[C@@](O)(C(=O)CO)C[C@@H]3O[C@H]1C[C@H](N)[C@H](O)[C@H](C)O1 [Doxorubicin]; details: max 1 µM
Outline: as §1

[20] = compound: NC1(c2ccc(-c3nc4ccn5c(=O)[nH]nc5c4cc3-c3ccccc3)cc2)CCC1 [MK-2206]; details: max 10 µM
Outline: as §1

[21] = compound: C[C@@H](Oc1cc(-c2cnn(C3CCNCC3)c2)cnc1N)c1c(Cl)ccc(F)c1Cl [Crizotinib]; details: max 10 µM
Outline: as §1

[22] = compound: C=CCn1c(=O)c2cnc(Nc3ccc(N4CCN(C)CC4)cc3)nc2n1-c1cccc(C(C)(C)O)n1 [AZD1775]; details: max 3 µM
Outline: as §1

[23] = compound: CCN(CCO)CCCOc1ccc2c(Nc3cc(CC(=O)Nc4cccc(F)c4)[nH]n3)ncnc2c1 [AZD2811]; details: max 1 µM
Outline: as §1

[24] = compound: Cc1nc(-c2cn3c(n2)-c2ccc(-c4cnn(C(C)(C)C(N)=O)c4)cc2OCC3)n(C(C)C)n1 [Taselisib]; details: max 10 µM
Outline: as §1

[25] = compound: O=C(c1cc(Cc2n[nH]c(=O)c3ccccc23)ccc1F)N1CCN(C(=O)C2CC2)CC1 [Olaparib]; details: max 10 µM
Outline: as §1

[26] = compound: C1CN(CCC1(C(=O)N[C@@H](CCO)C2=CC=C(C=C2)Cl)N)C3=NC=NC4=C3C=CN4 [AZD5363]; details: max 10 µM
Outline: as §1

[27] = compound: N#Cc1cnc(Nc2cc(NC[C@H]3CNCCO3)c(C(F)(F)F)cn2)cn1 [SRA737]; details: max 10 µM
Outline: as §1

[28] = compound: Cn1cnc2c(F)c(Nc3ccc(Br)cc3Cl)c(C(=O)NOCCO)cc21 [Selumetinib]; details: max 10 µM
Outline: as §1

[29] = compound: CS(=O)(=O)CCNCc1ccc(-c2ccc3ncnc(Nc4ccc(OCc5cccc(F)c5)c(Cl)c4)c3c2)o1 [Lapatinib]; details: max 10 µM
Outline: as §1

[30] = compound: CC1(C)CCC(CN2CCN(c3ccc(C(=O)NS(=O)(=O)c4ccc(NCC5CCOCC5)c([N+](=O)[O-])c4)c(Oc4cnc5[nH]ccc5c4)c3)CC2)=C(c2ccc(Cl)cc2)C1 [Venetoclax]; details: max 1 µM
Outline: as §1

[31] = compound: CC(=O)O[C@H]1C(=O)[C@@]2(C)[C@H]([C@H](OC(=O)c3ccccc3)[C@]3(O)C[C@H](OC(=O)[C@H](O)[C@@H](NC(=O)c4ccccc4)c4ccccc4)C(C)=C1C3(C)C)[C@]1(OC(C)=O)CO[C@@H]1C[C@@H]2O [Paclitaxel]; details: max 3 µM
Outline: as §1

[32] = compound: COc1cc([C@@H]2c3cc4c(cc3[C@@H](O[C@@H]3O[C@@H]5CO[C@@H](C)O[C@H]5[C@H](O)[C@H]3O)[C@H]3COC(=O)[C@H]23)OCO4)cc(OC)c1O [Etoposide]; details: max 10 µM
Outline: as §1

[33] = compound: O=c1[nH]cc(F)c(=O)[nH]1 [5-Fluorouracil]; details: max 20 µM
Outline: as §1

[34] = compound: Nc1ccn([C@@H]2O[C@H](CO)[C@@H](O)C2(F)F)c(=O)n1 [Gemcitabine]; details: max 0.3 µM
Outline: as §1

[35] = compound: Cc1cc2ncnn2cc1Nc1ncc2c(n1)n(C1CCOCC1)c(=O)n2C [AZD7648]; details: max 10 µM
Outline: as §1

Cell Line | IC50, cell viability 72 h [1] [nM] | IC50, cell viability 72 h [2] [nM] | IC50, cell viability 72 h [3] [nM] | IC50, cell viability 72 h [4] [nM] | IC50, cell viability 72 h [5] [nM] | IC50, cell viability 72 h [6] [nM] | IC50, cell viability 72 h [7] [nM] | IC50, cell viability 72 h [8] [nM] | IC50, cell viability 72 h [9] [nM] | IC50, cell viability 72 h [10] [nM] | IC50, cell viability 72 h [11] [nM] | IC50, cell viability 72 h [12] [nM] | IC50, cell viability 72 h [13] [nM] | IC50, cell viability 72 h [14] [nM] | IC50, cell viability 72 h [15] [nM] | IC50, cell viability 72 h [16] [nM] | IC50, cell viability 72 h [17] [nM] | IC50, cell viability 72 h [18] [nM] | IC50, cell viability 72 h [19] [nM] | IC50, cell viability 72 h [20] [nM] | IC50, cell viability 72 h [21] [nM] | IC50, cell viability 72 h [22] [nM] | IC50, cell viability 72 h [23] [nM] | IC50, cell viability 72 h [24] [nM] | IC50, cell viability 72 h [25] [nM] | IC50, cell viability 72 h [26] [nM] | IC50, cell viability 72 h [27] [nM] | IC50, cell viability 72 h [28] [nM] | IC50, cell viability 72 h [29] [nM] | IC50, cell viability 72 h [30] [nM] | IC50, cell viability 72 h [31] [nM] | IC50, cell viability 72 h [32] [nM] | IC50, cell viability 72 h [33] [nM] | IC50, cell viability 72 h [34] [nM] | IC50, cell viability 72 h [35] [nM]
DSH1 (Bladder Carcinoma) | 242 | > 10000 | > 10000 | > 10000 | > 2000 | 2060 | > 1000 | 4620 | 153 | 615 | 792 | 914 | > 10000 | > 3000 | > 1000 | > 1 | > 300 | 26.8 | 306 | > 10000 | > 10000 | 1920 | > 1000 | 2240 | > 10000 | > 10000 | > 10000 | > 10000 | 457 | > 1000 | 146 | 7620 | > 20000 | 6.55 | > 10000
KARPAS-620 (Plasma Cell Myeloma) | 167 | > 10000 | > 10000 | 10000 | > 2000 | > 5000 | 5.91 | > 10000 | 80.4 | 929 | > 10000 | 59.9 | > 10000 | > 3000 | > 1000 | > 1 | > 300 | > 300 | > 1000 | 2230 | 4750 | 1480 | > 1000 | 501 | > 10000 | 1620 | > 10000 | 5720 | > 10000 | 84.6 | 6.98 | > 10000 | > 20000 | > 300 | > 10000
DOV13 (Ovarian Carcinoma) | 650 | > 10000 | 2020 | 1930 | 165 | > 5000 | 464 | 2130 | 40.7 | > 1000 | > 10000 | > 1000 | > 10000 | > 3000 | > 1000 | > 1 | > 300 | 9.35 | 308 | > 10000 | 7020 | 1110 | 980 | 4650 | > 10000 | > 10000 | > 10000 | > 10000 | > 10000 | > 1000 | 31.7 | 2730 | > 20000 | 11.8 | > 10000
HT-29 (Colorectal Carcinoma) | 155 | > 10000 | > 10000 | > 10000 | > 2000 | 436 | > 1000 | 2390 | 28.3 | 11.9 | > 10000 | > 1000 | > 10000 | > 3000 | > 1000 | > 1 | > 300 | 64.7 | > 1000 | > 10000 | 6730 | 310 | > 1000 | 2220 | > 10000 | > 10000 | 4640 | 1000 | > 10000 | > 1000 | 18 | > 10000 | > 20000 | 161 | > 10000
SK-N-FI (Neuroblastoma) | 447 | > 10000 | > 10000 | 2480 | > 2000 | > 5000 | > 1000 | 8510 | 60.3 | 117 | > 10000 | > 1000 | > 10000 | > 3000 | > 1000 | > 1 | > 300 | 157 | > 1000 | > 10000 | > 10000 | 1600 | > 1000 | 955 | > 10000 | > 10000 | > 10000 | 7750 | > 10000 | > 1000 | 2250 | > 10000 | > 20000 | > 300 | > 10000
